Values quoted from earlier work, collected in patent US10196677B2, “Method for identification of sensitivity of a patient to telomerase inhibition therapy” (Geron Corporation, priority 2008, dated 2019).
Entries after “also recorded” stand apart in the source; their conditions may differ. [NPS] = N3'→P5' thiophosphoramidate linkage

Experiments:
animal tumor models = animal tumor models / human cancer cells, local and systemic delivery
cancer cells = conditions: cell culture, various cancer cell types

Substance: GRN163: oligonucleotide with sequence TAGGGTTAGACAA (SEQ ID NO:2) and N3′→P5′ thiophosphoramidate (NPS) linkages; hTR template inhibitor (all [NPS], sugars by position and methylation of C not given here)
- Activity against tumors in vivo (animal tumor models): therapeutically effective
- Inhibitory activity / growth inhibition of cancer cells in vitro (cancer cells): has shown inhibitory activity in vitro in cell culture; also recorded: have shown inhibitory activity in vitro
